From US20230293560A1, “METHOD FOR MODULATING THE BLADDER MICROBIOME TO IMPROVE BLADDER HEALTH” (Kimberly-Clark Worldwide, Inc., priority 2020, published 2023)
Several values for one entry are separate records, joined by “and”; a condition that tells them apart may be missing. Equal values may be shown once.

Experiments:
L. crispatus = assay: High throughput assay screening of prebiotics; format: cell-based, Lactobacillus crispatus; set-up: key: ++: if growth and fermentation was equal to or greater than the positive control; +: if growth and fermentation was less than the positive control; +: if weak or no growth or fermentation; +^2: Bacteria demonstrated growth but no fermentation on the prebiotic; conditions: 2% w/v prebiotic in API 50 CHL media; for growth and fermentation vs positive control, Lc-3: L. crispatus KC18-1173-1, Bladder; for growth and fermentation vs positive control, Lc-4: L. crispatus KC18-1174-1, Vagina
Protocol: (§1) Most of the prebiotic compounds were initially tested in a high throughput assay screening process, described further in the Test Methods section herein, but three prebiotics (as noted in Table 3) were tested using a plate assay screening process as described in the Test Methods section herein. The prebiotics were tested against the commensal bacterial species of Lactobacillus crispatus, Lactobacillus gasseri, and Lactobacillus jensenii and against the pathogenic bacterial species of Streptococcus anginosus and Enterococcus faecalis as shown in Table 2. The bacterial species were taken from different sources, listed as culture collection, bladder, and vagina.
(§2) The results of the assay plate screening of the prebiotic compounds of Table 1 against the bacterial species of Table 2 is documented in Table 3 with the results being described by the following legend: • ++ if growth and fermentation was equal to or greater than the positive control • + if growth and fermentation was less than the positive control • […] if weak or no growth or fermentation • NT if not tested Some codes were not tested based on the use or non-use by the bacteria, as a way to efficiently move through the assay plate screening to the competition assay, described below.
(§3) • 1. Create a 2% w/v stock of prebiotic or positive control (glucose/dextrose) to be tested in API 50 CHL media (Biomerieux, Marcy-I'Étoile, France). API 50 CHL media contains minimal amounts of carbon for growth, and a bromocresol purple as a pH indicator of fermentation. Filter sterilize media with a […]. Store at 4-6° C. until use. • 2. Add 180 μL of media containing the prebiotic to a sterile, flat bottom 96-well microtiter plate (Corning, Corning, NY). • 3. From a freezer stock subculture the bacteria twice into De Man, Rogosa and Sharpe (MRS) broth (BD Difco, Becton Dickinson, Franklin Lakes, NJ), 37° C., stationary, anaerobic, overnight. • 4. From the last subculture, plate onto an MRS agar plate (Teknova, Hollister, CA) and grow 37° C., stationary, anaerobic, overnight. • 5. Create a bacterial suspension by using a sterile tipped swab to transfer colonies of bacteria into a PBS suspension blank to a 0.5 MacFarland (S. anginosus or E. faecalis) or a 1 MacFarland (Lactobacillus species) from the MRS agar plate. • 6. Enumerate the starting culture. • 7. Inoculate the media alone and media containing the prebiotic or positive control with 20 μL of the bacterial suspension. • 8. Place the plate into a spectrophotometer (Molecular Devices, San Jose, CA) and read the plate every 20 minutes for 24-48 hours. Read wavelengths (OD 430, OD 590, and OD 660). A color change to yellow caused by a drop in pH will be read by an increase in the OD430 value and a decrease in the OD590 value and is indicative of bacterial fermentation. An increase in OD660 values is indicative of an increase in turbidity and bacterial growth.

L. gasseri = assay: High throughput assay screening of prebiotics; format: cell-based, Lactobacillus gasseri; set-up: key: ++: if growth and fermentation was equal to or greater than the positive control; +: if growth and fermentation was less than the positive control; +: if weak or no growth or fermentation; +^2: Bacteria demonstrated growth but no fermentation on the prebiotic; conditions: 2% w/v prebiotic in API 50 CHL media; for growth and fermentation vs positive control, Lg-1: L. gasseri KC16-7135-1, Bladder; for growth and fermentation vs positive control, Lg-2: L. gasseri KC16-7171-1, Bladder; for growth and fermentation vs positive control, Lg-3: L. gasseri KC18-1131-2, Bladder
Protocol: as §1, §2, §3

[1] = tested on: commensal and pathogenic bacterial species; assay: Prebiotic screening, summary in words across species; format: cell-based; conditions: for overall outcome of the screening of Table 3, in words: commensal (L. crispatus, L. gasseri, L. jensenii) and pathogenic (S. anginosus, E. faecalis) species
Protocol: as §1, §2, §3
• 1. An in house bacterial agar was created based on MRS agar (Kaplan and Hutkins, 2000) where the glucose is substituted for the prebiotic to be tested (either dextran MW ˜6,000, alpha-cyclodextrin, glucomannan, or pectin), bromocresol purple was included as a pH indicator. • 2. Bacteria were enumerated on each agar and color changes were recorded. Method for Competition Assay (Modified from “In Vitro Evaluation of Nutrients that Selectively Confer a Competitive Advantage to Lactobacilli” Vongsa et al, Beneficial Microbes 2016) • 1. Create 2% w/v stock of prebiotic or positive control (glucose/dextrose) as described above. • 2. From a freezer stock subculture the bacteria twice into De Man, Rogosa and Sharpe (MRS) broth (BD Difco, Becton Dickinson, Franklin Lakes, NJ), 37° C., stationary, anaerobic, overnight. • 3. From the last subculture, plate onto an MRS agar plate for L. crispatus KC18-1173-1 or blood agar for S. anginosus KC18-1131-3B, grow 37° C., stationary, anaerobic, overnight. • 4. […]

E. faecalis = assay: High throughput assay screening of prebiotics; format: cell-based, Enterococcus faecalis; set-up: key: ++: if growth and fermentation was equal to or greater than the positive control; +: if growth and fermentation was less than the positive control; +: if weak or no growth or fermentation; +^2: Bacteria demonstrated growth but no fermentation on the prebiotic; conditions: 2% w/v prebiotic in API 50 CHL media; for growth and fermentation vs positive control, Ef-2: E. faecalis KC16-7171-3, Bladder; for growth and fermentation vs positive control, Ef-3: E. faecalis KC17-3969-2B, Bladder; for growth and fermentation vs positive control, Ef-4: E. faecalis KC17-4331-3, Bladder
Protocol: as §1, §2, §3

L. jensenii = assay: High throughput assay screening of prebiotics; format: cell-based, Lactobacillus jensenii; set-up: key: ++: if growth and fermentation was equal to or greater than the positive control; +: if growth and fermentation was less than the positive control; +: if weak or no growth or fermentation; +^2: Bacteria demonstrated growth but no fermentation on the prebiotic; conditions: 2% w/v prebiotic in API 50 CHL media; for growth and fermentation vs positive control, Lj-1: L. jensenii KC17-4297-18, Bladder
Protocol: as §1, §2, §3

S. anginosus = assay: High throughput assay screening of prebiotics; format: cell-based, Streptococcus anginosus; set-up: key: ++: if growth and fermentation was equal to or greater than the positive control; +: if growth and fermentation was less than the positive control; +: if weak or no growth or fermentation; +^2: Bacteria demonstrated growth but no fermentation on the prebiotic; conditions: S. anginosus KC18-1131-3B, Bladder; 2% w/v prebiotic in API 50 CHL media
Protocol: as §1, §2, §3

[2] = tested on: S. anginosus, KC18-1131-3B, Bladder (Sa-2); format: cell-based; conditions: Table 6, prebiotic 2%, one line per replicate
Protocol: (§4) Further testing was conducted to put the prebiotic compounds in competition assay testing, as further described in the test methods section herein. In the competition assay testing, each competition involved testing a single prebiotic compound with the commensal bacteria species of L. crispatus, KC18-1173-1, Bladder (“Lc-3”—Table 2) against the pathogenic bacterial species of S. anginosus, KC18-1131-3B, Bladder (“Sa-2”—Table 2).
(§5) • 1. An in house bacterial agar was created based on MRS agar (Kaplan and Hutkins, 2000) where the glucose is substituted for the prebiotic to be tested (either dextran MW ˜6,000, alpha-cyclodextrin, glucomannan, or pectin), bromocresol purple was included as a pH indicator. • 2. Bacteria were enumerated on each agar and color changes were recorded. Method for Competition Assay (Modified from “In Vitro Evaluation of Nutrients that Selectively Confer a Competitive Advantage to Lactobacilli” Vongsa et al, Beneficial Microbes 2016) • 1. Create 2% w/v stock of prebiotic or positive control (glucose/dextrose) as described above. • 2. From a freezer stock subculture the bacteria twice into De Man, Rogosa and Sharpe (MRS) broth (BD Difco, Becton Dickinson, Franklin Lakes, NJ), 37° C., stationary, anaerobic, overnight. • 3. From the last subculture, plate onto an MRS agar plate for L. crispatus KC18-1173-1 or blood agar for S. anginosus KC18-1131-3B, grow 37° C., stationary, anaerobic, overnight. • 4. Create a bacterial suspension by using a sterile tipped swab to transfer colonies of bacteria into a PBS suspension blank to a 2 MacFarland for both species. • 5. Enumerate the starting culture. • 6. Add 9.8 mL of prebiotic media into a 15 mL conical tube. • 7. Add 100 μL of the diluted bacteria to the media, incubate at 37° C., anaerobic, 48 hours. • 8. Harvest 100 μL from the tube containing the prebiotic and plate onto MRS agar and tryptic soy agar (TSA). • 9. Enumerate the bacteria on the MRS agar (both the L. crispatus and the S. anginosus). Small colonies are counted as S. anginosus and large colonies are counted as L. crispatus. • 10. Enumerate the bacteria on the TSA plate. […] Growth of the bacteria in the negative control (CHL media without prebiotic) was subtracted from the growth in the presence of the prebiotic or formulation.

[3] = tested on: ratio of L. crispatus/S. anginosus; assay: Therapeutic effect protocol (competition assay); format: cell-based, Lactobacillus crispatus; Streptococcus anginosus; conditions: Table 6; prebiotic 2%; Lc-3 vs Sa-2
Description: As used herein, the term “therapeutic effect” refers to the ability of the compositions and formulations of the present disclosure to stimulate the growth of L. crispatus relative S. anginosus measured according to the therapeutic effect protocol described below. The therapeutic effect can be expressed as a ratio of L. crispatus to S. anginosus and is desirably greater than about 100, more preferably greater than about 500 and more desirably greater than about 1,000.
as §4, §5
Colonies of L. crispatus and S. anginosus were tested against in the competition method assay test method as described above. The therapeutic effect was calculated by comparing the colony forming units recovered after the competition assay of both L. crispatus and S. anginosus and calculating the ratio of L. crispatus/S. anginosus. A larger number indicates an increase in L. crispatus and/or a decrease in S. anginosus and a smaller number indicates a decrease in L. crispatus and/or an increase in S. anginosus.

[4] = tested on: L. crispatus, KC18-1173-1, Bladder (Lc-3); assay: Competition assay, L. crispatus recovered; format: cell-based, Lactobacillus crispatus; conditions: Table 6, prebiotic 2%, one line per replicate
Protocol: as §4, §5

[5] = change vs start, background growth in CHL media subtracted, MRS agar

| Compound | growth and fermentation vs positive control, Lc-3 (L. crispatus) | growth and fermentation vs positive control, Lc-4 (L. crispatus) | growth and fermentation vs positive control, Lg-1 (L. gasseri) | growth and fermentation vs positive control, Lg-2 (L. gasseri) | growth and fermentation vs positive control, Lg-3 (L. gasseri) | overall outcome of the screening of Table 3, in words [1] | growth and fermentation vs positive control, Ef-2 (E. faecalis) | growth and fermentation vs positive control, Ef-3 (E. faecalis) | growth and fermentation vs positive control, Ef-4 (E. faecalis) | growth and fermentation vs positive control, Lj-1 (L. jensenii) | growth and fermentation vs positive control, Sa-2 (S. anginosus) | further results |
| --- | --- | --- | --- | --- | --- | --- | --- | --- | --- | --- | --- | --- |
| OC[C@H]1O[C@](O)(CO)[C@@H](O)[C@@H]1O [Beta-D-fructose, Beta-D-Fructose] | ++ | ++ | + | + | + | able to provide growth on the commensal bacterial species, but also provided growth on the pathogenic bacterial species | ++ | ++ | ++ | ++ | ++ | growth and fermentation vs positive control, Lc-2 (L. crispatus; L. crispatus KC16-7134-3C, Bladder): ++; growth and fermentation vs positive control, Lg-4 (L. gasseri; L. gasseri KC18-1142-2, Bladder): +; growth and fermentation vs positive control, Lj-2 (L. jensenii; L. jensenii KC17-4347-1, Bladder): +; growth and fermentation vs positive control, Lj-3 (L. jensenii; L. jensenii KC17-4368-2, Bladder): ++ |
| OC[C@H]1O[C@H](O[C@H]2O[C@H](CO)[C@@H](O)[C@H](O)[C@H]2O)[C@H](O)[C@@H](O)[C@@H]1O [D-Trehalose] | ++ | + | ++ | ++ | ++ | – | ++ | ++ | ++ | + | ++ | – |
| OC[C@@H](O)[C@@H](O[C@@H]1O[C@H](CO)[C@H](O)[C@H](O)[C@H]1O)[C@H](O)[C@@H](O)CO [Lactitol] | – | – | – | – | – | not able to provide growth for most, if not all, commensal and pathogenic bacterial species | – | – | – | – | – | growth of commensal bacterial species, in words ([1]; commensal species from culture collection, the bladder, or the vagina): did not show any positive growth; Sa-2 MRS Δ [2, 5]: 0.75 Log CFU/mL and 0.69 Log CFU/mL; Sa-2 TSA Δ ([2]; change vs start, background growth in CHL media subtracted, TSA): 0.58 Log CFU/mL and 0.52 Log CFU/mL; Sa-2 MRS end ([2]; competition Sa-2 vs Lc-3, 48 hours, anaerobic, enumerated on MRS agar): 7.45 Log CFU/mL and 7.54 Log CFU/mL; Sa-2 TSA end ([2]; competition Sa-2 vs Lc-3, 48 hours, enumerated on TSA): 7.43 Log CFU/mL and 7.65 Log CFU/mL; growth and fermentation vs positive control, Ef-1 (E. faecalis; E. faecalis ATCC BAA-2128, Culture Collection): +; Therapeutic Effect (ratio of L. crispatus/S. anginosus) [3]: 2.95E−02 (2×) and 1.23E−01 (2×); Lc-3 MRS Δ [4, 5]: 0.77 Log CFU/mL and 0.66 Log CFU/mL; Lc-3 MRS end ([4]; competition Sa-2 vs Lc-3, 48 hours, enumerated on MRS agar): 5.90 Log CFU/mL and 6.74 Log CFU/mL |
